From EP2050758A1, “New polypeptides and uses thereof in cancer therapy” (INSTITUT NATIONAL DE LA SANTE ET DE LA RECHERCHE MEDICALE …, priority 2007, dated 2009)

Key:
[1] = system: ATPase domain of HSP70; conditions: MAMELAK & LINGWOOD, J. Biol. Chem. 2001; cited from earlier work
[2] = system: B16F10 melanoma cells; experiment: Tumor growth of aptamer-expressing B16F10 cells injected subcutaneously into syngeneic mice; format: in vivo, C57/B16 mice; conditions: mice bearing control tumors (wt B16F10 and B16F10-A0), cisplatin 10 mg/kg
From the text: To determine whether the chemosensitizing effect of A8 and A18 aptamers observed in vitro was also detected in vivo, mouse B16F10 melanoma cells were stably transfected with the aptamer expression vectors (A8, A18 and, as a control, A0). Stably transfected cells were selected using G418 (SIGMA) according to the manufacturer's instruction.
Exponentially growing B16F10 cells (wild type and aptamers-transfected) were harvested, washed in PBS, and resuspended in RPMI medium without foetal bovine serum (FBS) to a concentration of 2x10^5 B16F10 cells in 100 µl. B16F10 cells were then injected subcutaneously into the right side of syngeneic C57/B16 mice (9 mice/group). Next, some mice bearing B16F10-A0, B16F10-A8 or B16F10-A18 tumors were treated with cisplatin (10 mg/kg), given intraperitonealy as a single dose at day 6 after tumor cells injection. Tumor volume was evaluated for all mice every two days, using a caliper to measure two perpendicular diameters.

Row | Molecule | binding to the ATPase domain of HSP70 [1] | effect of cisplatin treatment on the size of the tumors [2]
1 | 3'-sulfogalactosylglycerolipid [SGG] | known to bind | –
2 | 3'-sulfogalactosyl ceramide [SGC] | known to bind | –
3 | N.N.[Cl][Pt][Cl] [cisplatin] | – | slightly reduced the size of the tumors
